Experiments:
HeLa = assay: Cytotoxic activity against human HeLa cells by MTT method; type: functional, cell-based
[1] = Cytotoxic activity against human Bel7402 cells by MTT method; conditions: Bel-7402
HEK293 = assay: Cytotoxic activity against human HEK293 cells by SRB method; type: cell-based
[2] = Cytotoxic activity against human HCT116 cells by SRB method; type: functional, cell-based; conditions: HCT-116
A549 = assay: Cytotoxic activity against human A549 cells by SRB method

Structure (SMILES)	IC50 (HeLa)	IC50 [1]	IC50 (HEK293)	IC50 [2]	IC50 (A549)
Cc1c(O)c(O)c(Oc2cc(O)c(C)c3c2C(=O)O[C@H](C)[C@H]3C)c2c1[C@H](C)[C@@H](C)O2	3.4 µM	7 µM	6.4 µM	3.5 µM	9.6 µM
CO[C@@]1(C)C[C@H]2O[C@H](C)[C@@H](C)c3c(C)c(O)cc(c32)O1	35.5 µM	> 50 µM	42.5 µM	> 50 µM	> 50 µM
CO[C@]12CCCC[C@H]1[C@H]1O[C@H](C)[C@@H](C)c3c(O)c(O)cc(c31)O2	4.6 µM	10.5 µM	6.7 µM	5.6 µM	7.6 µM
CO[C@H]1CCc2oc(=O)c3c(O)cc(C)cc3c21	12.6 µM	40.5 µM	31.4 µM	22.5 µM	10.8 µM
COC(=O)c1ccc2c(=O)c3cc(O)cc(C(=O)O)c3oc2c1O	10 µM	30.6 µM	28.5 µM	19 µM	16.9 µM
COc1cccc2c1C(=O)c1c(O)c3c(c(O)c1C2=O)C[C@@](O)(C(=O)CO)C[C@@H]3O[C@H]1C[C@H](N)[C@H](O)[C@H](C)O1 [DOXORUBICIN]	0.5 µM	–	0.04 µM	0.2 µM	–
CO[C@]1(C)C[C@H]2O[C@H](C)[C@@H](C)c3c(C)c(O)cc(c32)O1	45 µM	46.6 µM	32.6 µM	> 50 µM	> 50 µM
